Consider eleven compounds from patent US10053485B2, “Cytotoxic agents that preferentially target leukemia inhibitory factor (LIF) for the treatment of malignancies and as new contraceptive agents” (Evestra, Inc., priority 2015, dated 2018).

Molecules are shown by their SMILES. Like-named read-outs stand apart in the source and are kept apart here.

One data set concerns MDA-MB-231 (TNBC cells). Description: Short term (72 h) cytotoxicity assay. Particulars: Homo sapiens; MDA-MB-231, 72 h cytotoxicity. In kind it is cell-based.
The subject of a further data set is U87-MU (Glioma cells). Briefly: Short term (72 h) cytotoxicity assay. In kind it is cell-based.
The test system of another data set is U251 (Glioma). Description: Short term (72 h) cytotoxicity assay. In kind it is cell-based, human. As to conditions: U251, 72 h cytotoxicity.
A further data set relates to A549 (Lung cancer). Description: Short term (72 h) cytotoxicity assay. The data set is classed as cell-based, human. Particulars: A549, 72 h cytotoxicity.
The subject of data set [1] is T47D (ER+ PR+ Breast Cancer). Description: Short term (72 h) cytotoxicity assay. As to conditions: Homo sapiens. The data set is classed as cell-based.
In data set [2] the test system is MCF-7 (ER+ Breast Cancer). Description: Short term (72 h) cytotoxicity assay. The data set is classed as cell-based. As to conditions: Homo sapiens, MCF7; MCF-7, 72 h cytotoxicity.
Data set [3] relates to PC3 (AR− Prostate Cancer). Description: Short term (72 h) cytotoxicity assay. In kind it is cell-based. As to conditions: Homo sapiens, PC3, 72 h cytotoxicity.
A further data set has as its system LNCaP (AR+ Prostate). Briefly: Short term (72 h) cytotoxicity assay. In kind it is cell-based.
Data set [4] relates to Ishikawa (Endometrial Cancer). Description: Short term (72 h) cytotoxicity assay. The data set is classed as cell-based. Particulars: Homo sapiens.
Data set [5] has as its system various cancer cells lines. Description: Cytotoxicity assays in various cancer cell lines. In kind it is cell-based. As to conditions: in words. As to the method: Briefly, 5×10^3 cells were seeded in 96-well plates and incubated with compounds (0.0001-10 μmol/L) or dimethyl sulfoxide (DMSO; 0.02% v/v) for 24, 48, and 72 hours at 37° C. and cell viability was measured using a Fluoroscan plate reader.

Another data set relates to T47D breast cancer cells. Briefly: Soft agar colony formation assay. The data set is classed as cell-based, human. As to the method:
Colonies of cancer cells formed in soft agar in the presence and absence of the testing compounds is a standard assay to interpret in-vitro tumorigenic potential in the basal layer. Agar was prepared by mixing 1% DNA grade agar melted and cooled to 40° C. with an equal volume of (2×) Dulbecco's Modified Eagle's Medium (DMEM) to obtain 0.5% agar that was dispersed in a 6-well plate and allowed to solidify. A total of 0.6% agar was prepared in RPMI medium and mixed together with T47D cells (0.5×10^6 cells/mL) and immediately plated on the basal layer in the presence or absence of testing compounds. The cultures were incubated at 37° C. in a CO2 incubator for 2 weeks, and colonies were stained with 0.005% crystal violet and observed under a light microscope.

The test system of data set [6] is human umbilical vein endothelial cells (HUVEC). Description: Matrigel in vitro HUVECs tube formation assay (angiogenesis). As to conditions: 1 μM concentration, all measured time points. In kind it is cell-based. As to the method:
Matrigel in vitro HUVECs tube formation assay: The tube formation assay was performed using 12-well plate coated with 100 μL Matrigel basement membrane matrix (BD Bioscience) per well and polymerized at 37° C. for 30 min. Human umbilical vascular endothelial cells (HUVECs) suspended in M199 medium containing 2% FBS were plated on the Matrigel at a density of 2×10^5 cells/well. […] After 8 h, the Matrigel-induced morphological changes were photographed and the extent of capillary tube formation was evaluated by measuring the total tube length per field.

Data set [7] relates to human endometrial stromal cells (HESC). Briefly: Decidualization assay, actin cytoskeleton by phalloidin staining. As to conditions: FIG. 3. The data set is classed as cell-based. As to the method: Decidualization studies: The above compounds were investigated originally for the treatment of endometriosis. The compounds were tested in a decidualization assay using human endometrial stromal fibroblast (HESC) cells. In preparation for the possibility of embryonic attachment, the stromal cells in the endometrium undergo extensive waves of proliferation, remodeling, and terminal differentiation that transforms the endometrium into an endocrine gland, called decidua. This transformation is called decidualization and it is under the control by ovarian hormones.
The level of apoptosis increases from the proliferative phase through menstrual cycle and peaks at menses. […] However if the cells are subjected to conditions that induce decidualization, stromal cells will begin to differentiate instead of undergoing apoptosis.
Briefly, human stromal endometrial cells were plated in the presence and absence of progesterone and allow undergoing decidualization. The cells treated with test compounds of different concentrations and stained for actin cytocketal morphology using phalloidin staining and monitored under fluorescent microscope.

For data set [8], the system named is MDM2 / P53 in MCF-7 cells. Description: P53 / MDM2 levels in MCF-7 cells (FIG. 5). In kind it is cell-based, human.
Data set [9] has as its system Patient derived tumor (melanoma): p53, LIF, MDM2, pSTAT3, Ki67. Description: Immunohistochemistry analysis of patient derived tumor. The data set is classed as cell-based, human. Particulars: 10 nM and 1 uM for 5 days, FIG. 10. As to the method:
Patient derived tumor (melanoma) was treated with the compounds at 10 nM and 1 uM for 5 days in RPMI medium and harvested on day 6 using established protocol and immunohistochemistry was performed for different antibodies including p53, LIF, MDM2, pSTAT3, Ki67.

Data set [10] concerns unmodified MCF-7 human breast cancer cells. Briefly: LIF specificity assay, unmodified cells. In kind it is cell-based.
Data set [11] deals with LIF-overexpressing MCF-7 (MCF-7 LIF) human breast cancer cells. Description: LIF specificity assay, LIF-overexpressing cells. The data set is classed as cell-based.
The test system of data set [12] is IGROV-1 (Ovarian cancer cells). Briefly: Short term (72 h) cytotoxicity assay. The data set is classed as cell-based. As to conditions: Homo sapiens; IGROV-1, 72 h cytotoxicity.
Setting [13] is: Homo sapiens, MCF7, cytotoxicity.
Where [14] appears, read: Homo sapiens, MCF7, cytotoxicity, LIF-overexpressing MCF-7, read-out: MCF-7 LIF IC50.

The term IC50 denotes the point on the concentration scale where inhibition reaches its midpoint. In general, inhibition refers to the percentage by which the read-out fell short of the control. On to `C#CC(F)(F)[C@]1(O)CCC2C3CCC4=CC(=O)CCC4=C3C(c3ccc(C(C)=O)cc3)C[C@@]21C` (stereo partly drawn) [EC332, 17α-(1,1-difluoro-2-propyn-1-yl)-17β-hydroxy-11β-[4-p-(acetyl)phenyl]estra-4,9-dien-3-one], for which the IC50 worked out at 110 nM in the data set on MDA-MB-231 (TNBC cells); 90 nM with U87-MU (Glioma cells) (Glioma cell); 40 nM with U251 (Glioma) (Homo sapiens, U-251); 75 nM in the data set on A549 (Lung cancer) (Homo sapiens); 200 nM in data set [1]; 45 nM in data set [2]. Also, the IC50 was 300 nM in data set [3], 96 nM with LNCaP (AR+ Prostate) and 10 nM in data set [4]. In data set [5], the “IC50's in cytotoxicity assays” value was “low nanomolar”. The “inhibition in the number of colonies formed” value in the data set with T47D breast cancer cells (100 nM concentration, in words) is “complete inhibition”. In addition, the inhibition at 0.005 µM in the data set on T47D breast cancer cells (Homo sapiens, T47D, 5 nM concentration, read-out: inhibition in the number of colonies formed) amounted to 50%. In addition, the tube formation result in [6] is “complete abrogation”. The “actin / alpha-smooth muscle mediated cytoskeletal disruption of fibroblast” value in [7] is “cytoskeletal disruption”. The “P53 levels / MDM2” value in data set [8] is “restore P53 levels by inhibiting MDM2”. Moreover, the “apoptosis, p53, MDM2, LIF mediated STAT3 phosphorylation (immunohistochemistry)” value in data set [9] was “induce apoptosis and restore p53 by inhibiting MDM2 and LIF mediated STAT3 phosphorylation”.
For `C#CC(F)(F)[C@]1(O)CCC2C3CCC4=CC(=O)CCC4=C3C(c3ccc(OC)cc3)C[C@@]21C` (stereo partly drawn) [EC356, 17α-(1,1-difluoro-2-propyn-1-yl)-17β-hydroxy-11β-[4-p-(methoxy)phenyl]estra-4,9-dien-3-one], the IC50 in the data set with U87-MU (Glioma cells) (Glioma cell) worked out at 45 nM; in the data set with U251 (Glioma) (Homo sapiens, U-251), 45 nM; in the data set on A549 (Lung cancer) (Homo sapiens), 40 nM; in data set [10] (setting [13]) it was 500 nM; in [11] (setting [14]) it was 250 nM.
Take `C#CC(F)(F)[C@]1(O)CCC2C3CCC4=CC(=O)CCC4=C3C(c3ccc(C4CCCCC4)cc3)C[C@@]21C` (stereo partly drawn) [EC360, 17α-(1,1-difluoro-2-propyn-1-yl)-17β-hydroxy-11β-[4-p-(cyclohexyl)phenyl]estra-4,9-dien-3-one]: the IC50 is 22 nM in data set [12]; 40 nM in the data set on MDA-MB-231 (TNBC cells); 73 nM with U87-MU (Glioma cells) (Glioma cell); 500 nM in [10] (setting [13]); 250 nM in [11] (setting [14]).
For the compound `C#CC(F)(F)[C@]1(O)CC[C@H]2[C@@H]3CCC4=CC(=O)CCC4=C3[C@@H](c3ccc(-c4c(C)cc(C)cc4C)cc3)C[C@@]21C` [EC359, 17α-(1,1-difluoro-2-propyn-1-yl)-17β-hydroxy-11β-[4-p-(2,4,6-trimethylphenyl)phenyl]estra-4,9-dien-3-one], the IC50 was 25 nM in data set [12]; 30 nM in the data set with MDA-MB-231 (TNBC cells); 10 nM in the data set on U87-MU (Glioma cells) (Glioma cell); 240 nM in data set [10] (setting [13]); 30 nM in data set [11] (Homo sapiens, MCF7, read-out: MCF-7 LIF IC50).
As for `C#CC(F)(F)[C@]1(O)CCC2C3CCC4=CC(=O)CCC4=C3C(c3ccc(S(=O)(=O)C4CC4)cc3)C[C@@]21C` (stereo partly drawn) [EC361, 17α-(1,1-difluoro-2-propyn-1-yl)-17β-hydroxy-11β-[4-p-(cyclopropylsulfonyl)phenyl]estra-4,9-dien-3-one], the half-inhibitory concentration (IC50) was 350 nM in data set [12]; 750 nM in the data set with MDA-MB-231 (TNBC cells); 230 nM in the data set with U87-MU (Glioma cells) (Glioma cell); over 10000 nM in data set [10] (setting [13]); 500 nM in data set [11] (setting [14]).
As to `C#CC(F)(F)[C@]1(O)CCC2C3CCC4=CC(=O)CCC4=C3C(c3ccc(N(C)C)cc3)C[C@@]21C` (stereo partly drawn) [EC352, 17α-(1,1-difluoro-2-propyn-1-yl)-17β-hydroxy-11β-[4-p-(dimethylamino)phenyl]estra-4,9-dien-3-one], the IC50 in the data set on U87-MU (Glioma cells) was 50 nM; with U251 (Glioma), 40 nM; in the data set on A549 (Lung cancer), 45 nM; in [10] (cytotoxicity), over 10000 nM; in data set [11] (cytotoxicity, LIF-overexpressing MCF-7, read-out: MCF-7 LIF IC50), over 10000 nM. Also, the “Fold Change” value in data set [11] (MCF-7 vs. MCF-7 LIF cytotoxicity (specificity towards LIF)) is 0.
The term melting point denotes the temperature of the solid-liquid transition. Compound `C#CC(F)(F)[C@]1(O)CCC2C3CCC4=CC(=O)CCC4=C3C(c3ccc(C(C)(C)C)cc3)C[C@@]21C` (stereo partly drawn) [EC357, 17α-(1,1-difluoro-2-propyn-1-yl)-17β-hydroxy-11β-[4-p-(t-butyl)phenyl]estra-4,9-dien-3-one] came in with a melting point of 127 to 129 °C. The compound also came in with an IC50 in the data set with U87-MU (Glioma cells) (Glioma cell) of 35 nM. The compound also registered an IC50 in the data set on U251 (Glioma) (Homo sapiens, U-251) of 30 nM. Also, in the data set with A549 (Lung cancer) (Homo sapiens), the IC50 turned out to be 35 nM.
On to `C#CC(F)(F)[C@]1(O)CCC2C3CCC4=CC(=O)CCC4=C3C(c3ccc(C(=C)C)cc3)C[C@@]21C` (stereo partly drawn) [EC358, 17α-(1,1-difluoro-2-propyn-1-yl)-17β-hydroxy-11β-[4-p-(1-methylethenyl)phenyl]estra-4,9-dien-3-one], for which the IC50 in data set [12] turned out to be 35 nM; in the data set on MDA-MB-231 (TNBC cells), 40 nM; in the data set on U87-MU (Glioma cells) (Glioma cell) it was 25 nM; in [10] (setting [13]), 100 nM; in [11] (setting [14]), 50 nM.
Compound `C#CC(F)(F)[C@]1(O)CCC2C3CCC4=CC(=O)CCC4=C3C(c3ccc(-n4ccnc4)cc3)C[C@@]21C` (some centres unmarked) [EC351] gave a melting point of 175 to 178 °C. Besides, half-maximal inhibition with U251 (Glioma) (Homo sapiens, U-251) (IC50) required 500 nM.
Turning to `C#CC(F)(F)[C@]1(O)CCC2C3CCC4=CC(=O)CCC4=C3C(c3ccc(SC)cc3)C[C@@]21C` (stereo partly drawn) [EC363, 17α-(1,1-difluoro-2-propyn-1-yl)-17β-hydroxy-11β-[4-p-(methylthio)phenyl]estra-4,9-dien-3-one], the IC50 (in data set [12]; in the data set with U87-MU (Glioma cells) (Glioma cell)) was 30 nM in each case.
Take `C#CC(F)(F)[C@]1(O)CCC2C3CCC4=CC(=O)CCC4=C3C(c3ccc(CCCCCCC)cc3)C[C@@]21C` (stereo partly drawn) [EC362, 17α-(1,1-difluoro-2-propyn-1-yl)-17β-hydroxy-11β-[4-p-(n-heptyl)phenyl]estra-4,9-dien-3-one]: the 50% inhibitory concentration (IC50) was 7.5 nM in data set [12], 25 nM in [1], 50 nM in data set [10] (setting [13]) and 25 nM in [11] (setting [14]).
